Entries after “also recorded” stand apart in the source; their conditions may differ.
Legend:
caspases 3 and 7 = assay: Caspases 3 and 7 activity assay in gut mucosa after hemorrhagic shock; type: in vivo, rat; settings: intraluminal XJB-5-131 solution vs vehicle
Procedure: Caspases 3 and 7 activity assay. Caspases 3 and 7 activity was measured using a commercially available assay kit, Caspase Glo™ 3/7 assay kit (Promega, Madison, Wis.). Briefly, 50 μl of rat gut mucosa homogenate (20 jug protein) was mixed with 50 μl of Caspase-Glo™ reagent and incubated at room temperature for 1 hour. At the end of incubation period, the luminescence of each sample was measured using a plate reading chemiluminometer (ML1000, Dynatech Laboratories, Horsham, Pa.). Activity of caspases 3 and 7 was expressed as luminescence intensity (arbitrary units per mg protein). Protein concentrations were determined using the BioRad assay (Bio-Rad Laboratories, Inc., Hercules, Calif.).
After two hours of HS, samples of ileal mucosa from the gut sacs filled with the vehicle and XJB-5-131 were obtained and compared with ileal mucosa of normal MECs. All samples were assayed with caspase 3 or caspase 7 activity as well as the peroxidation of phosphatidylcholine (“PC”), phosphatidylethanolamine (“PE”), phosphatidylserine (“PS”), and cardiolipin (“CL”), summarized in FIG. 7.

progeroid Ercc1−/Δ mice = assay: Signs of aging in progeroid Ercc1−/Δ mice; type: in vivo, mouse; settings: 2 mg/kg intraperitoneally three times per week
Procedure: To assess the effectiveness of XJB-5-131 in inhibiting degeneration and/or signs of aging, the compound was administered, over an 18-21 week period, progeroid Ercc1^−/Δ mice, at a dose of 2 mg/kg in sunflower oil carrier (to promote solubility) administered intraperitoneally three times per week (FIG. 32). Sunflower seed oil was administered to twin Ercc1^−/Δ mice according to the same schedule as a control. The treated and control mice were monitored twice a week for weight and symptom/sign development.
FIG. 33 presents a summary table showing the results of the treatment with XJB-5-131 (“XJB” in this figure), relative to control (sunflower seed oil) after treatment from 5 wks of life until death. The numbers indicate the average age at onset of each age-related symptom for mice treated with XJB-5-131 or vehicle only (oil) (n=5 mice per group). […] Of note, all of the signs of neurodegeneration, including dystonia, trembling, ataxia, wasting and urinary incontinence were delayed in the treated animals, providing strong evidence that XJB-5-131 protects neurons against degenerative changes caused by oxidative stress.
To assess the ability of XJB-5-131 to inhibit deterioration of intervertebral discs (an index of degenerative disease of the vertebra), the level of glycosaminoglycan in the discs in treated and control mice were measured, and the results are shown in FIG. 34. The intervertebral discs of treated mice contained approximately 30 percent more glycosaminoglycan relative to control mice, indicating inhibition of disc degeneration.

[1] = system: Ercc1−/cond; K14-Cre mice; assay: Photoaging after UV-B in Ercc1−/cond; K14-Cre mice; type: in vivo, mouse; settings: 80 μg in a cream daily for five days
Procedure: As a measure of the effect of XJB-5-131 on photoaging, Ercc1^−/cond; K14-Cre mice, which are missing ERCC1 only in the skin, were shaved, treated with a depilatory then irradiated with UV-B light to induce a sunburn (500 J/m^2, the median erythemal dose). Subsequently, the mice were treated with XJB-5-131 (80 μg) emulsified in a cream daily for five days.

[2] = system: p16 in primary MEFs from Ercc1−/− mouse embryos; assay: p16 immunofluorescence in Ercc1−/− MEFs under 20% oxygen; type: cell-based; settings: 1 uM, 48 hrs
Procedure: To test the protective activity of JP4-039, cultures of primary MEFs were prepared from Ercc1^−/− mouse embryos and grown under 20% oxygen (ambient air), which creates oxidative stress in these cells that are hypersensitive to reactive oxygen species. The cells were then either treated with a concentration of 1 uM XJB-5-131, JP4-039, JED-E71-37 or JED-E71-58, or left untreated (media), and then after 48 hrs the level of p16, a marker of irreversible cellular senescence, was measured by immunofluorescence staining.

[3] = system: γ-H2AX in primary MEF cells from Ercc1−/− mice; assay: γ-H2AX immunostaining in Ercc1−/− MEFs under oxidative stress; type: cell-based, mouse; settings: 1 μM, 48 hours
Procedure: Next, the abilities of these two agents, as well as XJB-5-131 and JP4-039, each at a concentration of 1 μM, were tested for their ability to prevent oxidation-induced DNA double-strand breaks in cell cultures prepared, and oxidatively stressed, as in the preceding paragraph. Treated as well as untreated cells were, after 48 hours of treatment, immunostained for γ-H2AX, a marker of DNA double-strand breaks as well as cellular senescence.

CC(C)C[C@@H](/C=C/[C@H](Cc1ccccc1)C(=O)N1CCC[C@H]1C(=O)N[C@H](C(=O)N[C@@H](CCCNC(=O)OCc1ccccc1)C(=O)NC1CC(C)(C)N([O])C(C)(C)C1)C(C)C)NC(=O)OC(C)(C)C [XJB-5-131]
caspase 3 and 7 activity after hemorrhagic shock (caspases 3 and 7): significantly decreased | age at onset of age-related symptoms (progeroid Ercc1−/Δ mice): significantly delayed | body weight / tolerability (progeroid Ercc1−/Δ mice): did not lose weight; also recorded: does not cause weight loss | glycosaminoglycan in intervertebral discs, more relative to control mice (progeroid Ercc1−/Δ mice): approximately 30% | overall aging score (progeroid Ercc1−/Δ mice): significantly improved | signs of neurodegeneration (dystonia, trembling, ataxia, wasting, urinary incontinence) (progeroid Ercc1−/Δ mice): delayed | appearance of skin after UV-B [1]: much more smooth and healthy | level of p16 [2]: less effective | γ-H2AX (oxidation-induced DNA double-strand breaks) [3]: less effective
